Reference: PubChem BioAssay (NCI)
“And” between values parts separate entries of the source, which are not always exact repeats. Identical values can stand only once.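 All cell lines were grown in 96-well plates and treated with compound for 48 hours. Here, GI50 denotes the concentration required for 50% inhibition of growth. TGI marks complete inhibition of growth.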

Experiments:
Test in all cases: DTP human tumour cell line panel, 48 h
HT29 colon = system: HT29 colon
SNB-75 CNS = system: SNB-75 CNS
SK-MEL-2 melanoma = system: SK-MEL-2 melanoma
KM12 colon = system: KM12 colon
ACHN renal = system: ACHN renal
HOP-92 NSCLC = system: HOP-92 NSCLC
BT-549 breast = system: BT-549 breast
NCI/ADR-RES ovarian = system: NCI/ADR-RES ovarian
MOLT-4 leukemia = system: MOLT-4 leukemia
NCI-H522 lung = system: NCI-H522 lung
SK-OV-3 ovarian = system: SK-OV-3 ovarian
HCT-15 colon = system: HCT-15 colon
RXF 393 renal = system: RXF 393 renal
OVCAR-8 ovarian = system: OVCAR-8 ovarian
U251 CNS = system: U251 CNS
SNB-19 CNS = system: SNB-19 CNS
MDA-MB-231 breast = system: MDA-MB-231 breast
M14 melanoma = system: M14 melanoma
NCI-H460 lung = system: NCI-H460 lung
786-0 renal = system: 786-0 renal
OVCAR-3 ovarian = system: OVCAR-3 ovarian
SN12C renal = system: SN12C renal
UACC-257 melanoma = system: UACC-257 melanoma
NCI-H226 lung = system: NCI-H226 lung
SF-539 CNS = system: SF-539 CNS
SR leukemia = system: SR leukemia
LOX IMVI melanoma = system: LOX IMVI melanoma
DU-145 prostate = system: DU-145 prostate
NCI-H23 lung = system: NCI-H23 lung
IGROV1 ovarian = system: IGROV1 ovarian
K-562 leukemia = system: K-562 leukemia
A498 renal = system: A498 renal
HS 578T breast = system: HS 578T breast
HCC-2998 colon = system: HCC-2998 colon
SF-295 CNS = system: SF-295 CNS
TK-10 renal = system: TK-10 renal
SF-268 CNS = system: SF-268 CNS
A549 NSCLC = system: A549 NSCLC
T-47D breast = system: T-47D breast
OVCAR-5 ovarian = system: OVCAR-5 ovarian
HL-60(TB) leukemia = system: HL-60(TB) leukemia
UACC-62 melanoma = system: UACC-62 melanoma
OVCAR-4 ovarian = system: OVCAR-4 ovarian
MCF7 breast = system: MCF7 breast
MDA-MB-435 = system: MDA-MB-435
SK-MEL-28 melanoma = system: SK-MEL-28 melanoma
MALME-3M melanoma = system: MALME-3M melanoma
PC-3 prostate = system: PC-3 prostate
CAKI-1 renal = system: CAKI-1 renal
HCT-116 colon = system: HCT-116 colon
CCRF-CEM leukemia = system: CCRF-CEM leukemia
RPMI-8226 leukemia = system: RPMI-8226 leukemia
COLO 205 colon = system: COLO 205 colon
SW-620 colon = system: SW-620 colon
HOP-62 NSCLC = system: HOP-62 NSCLC
SK-MEL-5 melanoma = system: SK-MEL-5 melanoma
UO-31 renal = system: UO-31 renal
EKVX NSCLC = system: EKVX NSCLC

`CC1(COc2ccc3c(c2)ncn3-c2ccc3cccc(N4CCC(N)CC4)c3n2)COC1` was tested, and the GI50 (HT29 colon) was 2.92 µM and 3.29 µM, the TGI (HT29 colon) was 7.99 µM and > 10 µM and the GI50 (SNB-75 CNS) was 0.734 µM. For the same compound, the TGI (SNB-75 CNS) was 5.65 µM, the GI50 (SK-MEL-2 melanoma) was 4.96 µM and 3.29 µM and the TGI (SK-MEL-2 melanoma) was 11.9 µM and 6.85 µM. For the same compound, the GI50 (KM12 colon) was 0.0519 µM and 0.118 µM, the TGI (KM12 colon) was 5.74 µM and > 10 µM and the GI50 (ACHN renal) was 2.61 µM and 2.24 µM. For the same compound, the TGI (ACHN renal) was over 10 µM, the GI50 (HOP-92 NSCLC) was 10.3 µM and 3.27 µM and the TGI (HOP-92 NSCLC) was 25.7 µM and > 10 µM. For the same compound, the GI50 (BT-549 breast) was 2.8 µM and 2.64 µM, the TGI (BT-549 breast) was 12.7 µM and 9.74 µM and the GI50 (NCI/ADR-RES ovarian) was 7.04 µM and > 10 µM. For the same compound, the TGI (NCI/ADR-RES ovarian) was 20.6 µM and > 10 µM, the GI50 (MOLT-4 leukemia) was 1.56 µM and 1.51 µM and the TGI (MOLT-4 leukemia) was 5.71 µM and 5.97 µM. The GI50 (NCI-H522 lung) was 1.21 µM and 1.6 µM, the TGI (NCI-H522 lung) was 3.3 µM and 5.19 µM and the GI50 (SK-OV-3 ovarian) was 15.5 µM and > 10 µM. The TGI (SK-OV-3 ovarian) was 29.2 µM and > 10 µM, the GI50 (HCT-15 colon) was 3.37 µM and 2.92 µM and the TGI (HCT-15 colon) was 12.3 µM and > 10 µM. The GI50 (RXF 393 renal) was 1.32 µM and 0.893 µM, the TGI (RXF 393 renal) was 3.3 µM and 2.71 µM and the GI50 (OVCAR-8 ovarian) was 2.82 µM and 2.84 µM. For the same compound, the TGI (OVCAR-8 ovarian) was 10.7 µM and > 10 µM, the GI50 (U251 CNS) was 1.7 µM and 1.87 µM and the TGI (U251 CNS) was 4.09 µM and 5.66 µM. The GI50 (SNB-19 CNS) was 4.35 µM and 3.36 µM, the TGI (SNB-19 CNS) was 13.2 µM and > 10 µM and the GI50 (MDA-MB-231 breast) was 2.55 µM and 1.88 µM. The TGI (MDA-MB-231 breast) was 8.69 µM and 7.63 µM, the GI50 (M14 melanoma) was 3.55 µM and 2.68 µM and the TGI (M14 melanoma) was 10.1 µM and 6.77 µM. The GI50 (NCI-H460 lung) was 2.17 µM and 2.48 µM, the TGI (NCI-H460 lung) was 6.11 µM and 7.46 µM and the GI50 (786-0 renal) was 1.8 µM and 1.75 µM. The TGI (786-0 renal) was 4.63 µM and 3.85 µM, the GI50 (OVCAR-3 ovarian) was 2.35 µM and 2.99 µM and the TGI (OVCAR-3 ovarian) was 4.73 µM and > 10 µM. The GI50 (SN12C renal) was 0.945 µM and 1.12 µM, the TGI (SN12C renal) was 15.3 µM and > 10 µM and the GI50 (UACC-257 melanoma) was 2.7 µM. For the same compound, the TGI (UACC-257 melanoma) was 5.36 µM and 5.55 µM, the GI50 (NCI-H226 lung) was 3.18 µM and 2.54 µM and the TGI (NCI-H226 lung) was 9.32 µM and > 10 µM. For the same compound, the GI50 (SF-539 CNS) was 1.26 µM and 1.01 µM, the TGI (SF-539 CNS) was 2.65 µM and 2.59 µM and the GI50 (SR leukemia) was 0.769 µM and 0.347 µM. The TGI (SR leukemia) was 4.7 µM and 2.4 µM, the GI50 (LOX IMVI melanoma) was 1.4 µM and 1.16 µM and the TGI (LOX IMVI melanoma) was 3.97 µM and > 10 µM. For the same compound, the GI50 (DU-145 prostate) was 2.19 µM and 1.5 µM, the TGI (DU-145 prostate) was 13 µM and > 10 µM and the GI50 (NCI-H23 lung) was 2.13 µM and 1.94 µM. For the same compound, the TGI (NCI-H23 lung) was 8.59 µM and 5.28 µM, the GI50 (IGROV1 ovarian) was 4.07 µM and 2.57 µM and the TGI (IGROV1 ovarian) was 14 µM and > 10 µM. The GI50 (K-562 leukemia) was 2.1 µM and 1.94 µM, the TGI (K-562 leukemia) was 8.36 µM and 8.92 µM and the GI50 (A498 renal) was 5.01 µM and 2.03 µM. For the same compound, the TGI (A498 renal) was 10.7 µM and 4.27 µM, the GI50 (HS 578T breast) was 2.08 µM and 0.385 µM and the TGI (HS 578T breast) was 15.3 µM and 4.77 µM. For the same compound, the GI50 (HCC-2998 colon) was 2.7 µM and 2.25 µM, the TGI (HCC-2998 colon) was 7.51 µM and 7.85 µM and the GI50 (SF-295 CNS) was 5.75 µM and 2.88 µM. For the same compound, the TGI (SF-295 CNS) was 19.4 µM and > 10 µM, the GI50 (TK-10 renal) was 1.97 µM and 2.56 µM and the TGI (TK-10 renal) was 6.73 µM and > 10 µM. The GI50 (SF-268 CNS) was 2.74 µM and 2.85 µM, the TGI (SF-268 CNS) was 9.15 µM and > 10 µM and the GI50 (A549 NSCLC) was 1.83 µM and 2.39 µM. For the same compound, the TGI (A549 NSCLC) was 4.45 µM and > 10 µM, the GI50 (T-47D breast) was 15.9 µM and > 10 µM and the TGI (T-47D breast) was 30.5 µM and > 10 µM. The GI50 (OVCAR-5 ovarian) was 3.26 µM and 2.57 µM, the TGI (OVCAR-5 ovarian) was 12.8 µM and > 10 µM and the GI50 (HL-60(TB) leukemia) was 1.82 µM and 1.8 µM. For the same compound, the TGI (HL-60(TB) leukemia) was 4.54 µM and 4.49 µM, the GI50 (UACC-62 melanoma) was 16.7 µM and > 10 µM and the TGI (UACC-62 melanoma) was 34.4 µM and > 10 µM. For the same compound, the GI50 (OVCAR-4 ovarian) was 2.89 µM and 3.53 µM, the TGI (OVCAR-4 ovarian) was 8.15 µM and > 10 µM and the GI50 (MCF7 breast) was 2.17 µM and 2.2 µM. The TGI (MCF7 breast) was 6.54 µM and 7.83 µM, the GI50 (MDA-MB-435) was 3.06 µM and 3.25 µM and the TGI (MDA-MB-435) was 10.5 µM and > 10 µM. The GI50 (SK-MEL-28 melanoma) was 3.5 µM and 3.37 µM, the TGI (SK-MEL-28 melanoma) was 9.34 µM and 8.36 µM and the GI50 (MALME-3M melanoma) was 3.23 µM and 1.86 µM. The TGI (MALME-3M melanoma) was 6.46 µM and 3.74 µM, the GI50 (PC-3 prostate) was 5.38 µM and 3.54 µM and the TGI (PC-3 prostate) was 21.6 µM and > 10 µM. For the same compound, the GI50 (CAKI-1 renal) was 4.75 µM and 3.55 µM, the TGI (CAKI-1 renal) was 19.6 µM and > 10 µM and the GI50 (HCT-116 colon) was 0.894 µM and 1.03 µM. For the same compound, the TGI (HCT-116 colon) was 5.35 µM and > 10 µM, the GI50 (CCRF-CEM leukemia) was 2.02 µM and 1.39 µM and the TGI (CCRF-CEM leukemia) was 6.44 µM and 5.86 µM. The GI50 (RPMI-8226 leukemia) was 2.08 µM and 1.88 µM, the TGI (RPMI-8226 leukemia) was 5.29 µM and 5.21 µM and the GI50 (COLO 205 colon) was 1.09 µM and 1.02 µM. For the same compound, the TGI (COLO 205 colon) was 2.44 µM and 2.86 µM, the GI50 (SW-620 colon) was 3.09 µM and 2.52 µM and the TGI (SW-620 colon) was 11 µM and > 10 µM. For the same compound, the GI50 (HOP-62 NSCLC) was 1.74 µM and 1.49 µM, the TGI (HOP-62 NSCLC) was 6.59 µM and 9.02 µM and the GI50 (SK-MEL-5 melanoma) was 2.31 µM and 2.12 µM. For the same compound, the TGI (SK-MEL-5 melanoma) was 6.7 µM and 5.22 µM, the GI50 (UO-31 renal) was 1.78 µM and 0.822 µM and the TGI (UO-31 renal) was 5.12 µM and 7.4 µM. The GI50 (EKVX NSCLC) was 3.02 µM and 3.28 µM and the TGI (EKVX NSCLC) was 13.2 µM and > 10 µM.
